The numbers were not newly measured in patent publication US20240285564A1, “USE OF (S)-3-AMINO-4-(DIFLUOROMETHYLENYL)CYCLOPENT-1-ENE-1-CARBOXYLIC ACID FOR GASTROINTESTINAL TRACT DISORDERS AND AS AN IMMUNOMODULATORY AGENT” (Ovid Therapeutics Inc., priority 2023, published 2024), which cites them from elsewhere.

One may read the pIC50 as the negative decadic logarithm of the IC50, by convention in mol/L. A word on the pKi: it is the negative decadic logarithm of the Ki, by convention in mol/L.

pIC50, pKi: −log10 of the molar value.

In one data set the target is T1, OAT (Homo sapiens, UniProt P04181).
T1 sequence (P04181 36-439 limits assumed): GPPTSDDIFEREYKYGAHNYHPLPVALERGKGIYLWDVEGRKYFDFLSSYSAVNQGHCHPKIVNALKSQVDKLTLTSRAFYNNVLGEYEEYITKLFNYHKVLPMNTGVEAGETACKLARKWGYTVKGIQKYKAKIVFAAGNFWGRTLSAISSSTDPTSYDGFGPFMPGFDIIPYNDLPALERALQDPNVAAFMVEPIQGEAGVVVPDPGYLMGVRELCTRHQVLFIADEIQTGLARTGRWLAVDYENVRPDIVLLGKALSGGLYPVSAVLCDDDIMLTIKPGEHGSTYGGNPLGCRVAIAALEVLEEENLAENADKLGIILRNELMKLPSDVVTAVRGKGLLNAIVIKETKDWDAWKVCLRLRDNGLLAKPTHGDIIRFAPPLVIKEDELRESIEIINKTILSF

Data set [1] addresses aspartate aminotransferase (Asp-AT).
In data set [2] the target is alanine aminotransferase (Ala-AT).
The mark [3] stands for this setting: read-out: IC50 (reversible inhibition).

For the molecule `N[C@H]1C=C(C(=O)O)CC1=C(F)F` [(S)-3-amino-4-(difluoromethylenyl)cyclopent-1-ene-1-carboxylic acid], at OAT, the kintact was 0.025 min⁻¹ and the kintact/KI is 127 M⁻¹ s⁻¹. In addition, the “times more efficient an inactivator of OAT than CPP-115” value at OAT (relative to CPP-115) is given as 9.0 times. For the same molecule, the pIC50 in data set [1] (setting [3]) was < 2.40. Moreover, in data set [2] (setting [3]), the negative logarithm of the IC50 (pIC50) was < 2.40.

As for `N[C@H]1C[C@@H](C(=O)O)CC1=C(F)F` [CPP-115, (1S,3S)-3-amino+difluoromethylenyl-1-cyclopentanoic acid, reference compound], the pKi at OAT is 3.94. For the same molecule, the kintact at OAT is 0.097 min⁻¹. In addition, the “inactivation or inhibition of off-target enzyme” value in data set [1] and in data set [2] was “not to inactivate or inhibit” each time.
